Experimental data as given in patent publication US6361773B1, “Antibodies produced against cytokine suppressive anti-inflammatory drug binding proteins” (SmithKline Beecham Corporation, priority 1993, dated 2002).
Where two headings read alike, the source gives them in different places.

Key:
[1] = test system: IL-1 production in human monocytes; test: CSAIDs bioassay (IL-1 dependent EL-4/IL2 induction assay, LPS-stimulated human monocytes); assay type: cell-based; conditions: Monocyte
Description: The biological assay employed to evaluate CSAIDs activity was the IL-1 dependent EL-4/IL2 induction assay (Simon, P. L. et al., J. Immuno. Meth. 84: 85-94 (1985)). Briefly, Human monocytes were plated in 24-well plates in LPS-free RPMI 1640 media containing 1% human AB serum at a concentration of 10^6 per millilitre per well and allowed to adhere for 1 h at 37° C.; non-adherent cells were removed by gentle washing. Test compounds or media were added to the cells 0 or 1 h before the addition of bacterial lipopolysaccharide (E. coli 001:B4; Difco, Detroit) at 10 ng/ml. The cultures were then incubated at various intervals as indicated at 37° C. in a humidified 5% CO2 atmosphere. At the end of the incubation period, culture supernatants were collected. The residual adherent monocytes were lysed in a buffer containing 0.15M octyl-glucopyranoside, 25 mM Hepes, and 0.5 mM phenylmethylsulfonylfluoride in saline. Both supernatants and cell lysates were clarified by centrifugation and assayed for IL-1 activity.
IL-1 activity was measured by its ability to stimulate the secretion of IL-2 by EL-4 (ATCC TIB181) cells in the presence of A23187 ionophore. Serial dilutions of the samples were incubated with 10^5 EL-4 cells in the presence of 2×10^−7 M calcium ionophore A23187. After overnight incubation, 0.1 ml of a cell-free supernatant from each culture was taken and incubated with 10^4 IL-2-dependent […] (ATCC-T11B214) cells. Following an additional 20 hours of incubation, the cultures were pulsed with 1 μCi of tritiated thymidine for 4 h. The cells were then harvested onto glass-fibre filters and the radioactivity deterrnined by liquid scintillation counting.

[2] = target: T1, CSAID binding protein (CSBP) in THP.1 cytosol (Homo sapiens, UniProt Q16539); test: CSAID binding assay with 3H-Compound I and THP.1 cytosol
T1 construct: endogenous in cells; host or cells: THP.1 (ATCC TIB 202), cytosolic fraction (100,000 x g supernatant)

[3] = Table II, read-out: IC50 in competitive CSAID binding assay

T1 sequence (Q16539 whole entry): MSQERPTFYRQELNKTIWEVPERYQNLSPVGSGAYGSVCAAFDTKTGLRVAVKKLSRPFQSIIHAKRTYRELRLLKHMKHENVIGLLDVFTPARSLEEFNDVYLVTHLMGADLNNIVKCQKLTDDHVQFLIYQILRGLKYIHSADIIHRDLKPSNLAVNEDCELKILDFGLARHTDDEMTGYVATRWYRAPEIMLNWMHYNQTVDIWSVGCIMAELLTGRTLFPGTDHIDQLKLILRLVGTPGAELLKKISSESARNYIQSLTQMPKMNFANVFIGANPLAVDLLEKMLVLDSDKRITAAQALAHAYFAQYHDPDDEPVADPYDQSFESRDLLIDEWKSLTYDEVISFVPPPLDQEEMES

Row | Compound | IC50 [2, 3] [nM] | IC50 ([1]; read-out: IC50 in the bioassay) [nM] | also measured
1 | [N-]=[N+]=Nc1ccc(-c2nc(-c3cccc([125I])c3)c(-c3ccncc3)[nH]2)cc1 [Compound IV, 4-[2-(4-azidophenyl)-5-(3-^125Iodo-phenyl)-1H-imidazol-4-yl]pyridine] |  |  | IC50 ([1]; read-out: IC50 in a CSAIDs bioassay): 3000 nM; IC50 ([2]; read-out: IC50 in a competitive binding assay): 500 to 800 nM
2 | CCc1nc(-c2ccc(OC)cc2)[nH]c1-c1ccncc1 [Compound VIII] |  | > 5000 | 
3 | N#Cc1ccc(-c2nc(-c3ccc(F)cc3)c(-c3ccnc4ccccc34)n2O)cc1 [Compound VII] |  | 20 | 

Further lines, with some results ahead:

Row | IC50 [2, 3] [nM] | Compound | IC50 ([1]; read-out: IC50 in the bioassay) [nM] | also measured
4 | 154000 | CC(Cc1ccc(O)c(O)c1)C(C)Cc1ccc(O)c(O)c1 (stereo not drawn) [NDGA] |  | 
5 | 139000 | NC(=O)N1C(=O)/C(=C(\O)c2cccs2)c2cc(Cl)ccc21 [Tenidap] |  | 
